We go through 27 molecules from patent US5691307A, “O^6 -substituted guanine compositions and methods for depleting O^6” (The United States of America as represented by the …, priority 1994, dated 1997).

Like-named read-outs stand apart in the source and are kept apart here.

Data set [1] deals with AGT. The data set is described as follows: AGT depletion (general statements).
For data set [2], the system named is malignant melanomas, brain tumors and mycosis fungoides. Conditions: background; cited from earlier work.
The conditions of data set [3]: background; agents under development; cited from earlier work.
In data set [4] the target is T1, alkyltransferase (AGT), HT29 cell-free extract (Homo sapiens, UniProt P16455).
T1 sequence (P16455 1-207): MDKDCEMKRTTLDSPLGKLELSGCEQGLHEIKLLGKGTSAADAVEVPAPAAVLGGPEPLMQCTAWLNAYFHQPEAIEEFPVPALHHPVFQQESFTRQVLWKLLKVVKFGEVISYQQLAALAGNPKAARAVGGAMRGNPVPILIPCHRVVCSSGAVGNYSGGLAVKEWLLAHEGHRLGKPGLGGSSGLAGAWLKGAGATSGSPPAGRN
In words: biochemical.

In data set [5] the target is T2, alkyltransferase (AGT), HT29 cells (Homo sapiens, UniProt P16455).
T2 construct: human colon tumor cells HT29 and intact HT29 cells; endogenous in cells; host or cells: HT29 human colon tumor cells, intact
T2 sequence (P16455 1-207): T1 sequence (P16455 1-207)
The data set is described as follows: AGT depletion/inactivation in intact HT29 cells. In kind it is cell-based. Here is the method:
After four hours, cells were harvested and frozen at -80° C. until analysis for AGT.

The next data set relates to tumor cells. Particulars: cited from earlier work.
Data set [6] has as its system AGT. Conditions: cited from earlier work; for AGT depletion (shown previously): literature.
The test system of data set [7] is active melanin producing cells such as melanoma cells. Particulars: cited from earlier work.
The test system of the next data set is pancreatic tumors. Particulars: background; cited from earlier work.
A further data set deals with pancreatic beta cells. Conditions: cited from earlier work.
The nature of data set [8]: Conversion to O^6-benzylguanine / stability in vitro and in cell cultures. Type of data set: in vitro ADME.
Data set [9] in a line: Stability in alkaline solution (UV at pH 13). Particulars: pH 13, UV measurement. In kind it is physicochemical. The method, then: The reaction mixture was stirred at 0° C. for 30 min at which time the ice bath was removed and the reaction was allowed to proceed overnight at room temperature. At this point, a water-ice mixture (~5 ml) was added to the flask with vigorous stirring for 5 minutes.

The test system of another data set is prostate tumors. Particulars: rats bearing prostate tumors; O^6-benzylguanine one hour prior to BCNU, or BCNU alone at equal dose; cited from earlier work.
Where [10] appears, read: HT29 cell-free extract, 30 min incubation, 50% inactivation (Table 2), read-out: ED50 In cell-free extract.
[11] abbreviates: HT29 cells, 4 h incubation, 50% inactivation (Table 2), read-out: ED50 In cells.

In the case of `Nc1nc(OCc2ccccc2)c2ncn(CC(=O)[O-])c2n1.[Na+]`, the AGT depletion characteristics result in the data set on AGT [1] is recorded as “exhibit AGT depletion characteristics”.
`Cn1nnc2c(C(N)=O)ncn2c1=O` [Temozolomide, 8-carbamoyl-3-methylimidazo[5,1-d]-1,2,3,5-tetrazin-4-(3H)-one]: the “activity against malignant melanomas, brain tumors and mycosis fungoides” value in [2] was “active”.
`CS(=O)(=O)CS(=O)(=O)OCCCl` [Clomesone, 2-chloroethylmethylsulfonylmethanesulfonate]: in [3], the side effects entry is on record as “fewer side effects”.
On to `O=NN(CCCl)C(=O)NCCO` [1-(2-chloroethyl)-3-(2-hydroxyethyl)-1-nitrosourea], for which the side effects entry in [3] is “fewer side effects”.
As for `C[C@]12CC[C@H]3[C@@H](CCC4=CC(=O)CC[C@@]43C)[C@@H]1CC[C@@H]2OC(=O)Cn1cnc2c(OCc3ccccc3)nc(N)nc21` [Example 20, O^6 -Benzyl-9-(4-androsten-3-one-17β-oxycarbonylmethyl) guanine], the IC50 in data set [4] was determined as 5 µM; in data set [5], 0.5 µM.
On to `CC(=O)OC[C@H]1OC(OC(C)=O)[C@H](NC(=O)Cn2cnc3c(OCc4ccccc4)nc(N)nc32)[C@@H](OC(C)=O)[C@@H]1OC(C)=O` (stereo partly drawn) [Example 8, 2-Amino-6-benzyloxy-9-{N-[2-deoxy-2-(1,3,4,6-tetra-O-acetyl)-D-glucopyranosyl]carbamoylmethyl}purine], for which the AGT depletion characteristics result with AGT [1] is reported as “exhibit AGT depletion characteristics”.
On to `CCOP(=O)(OCC)C(C)NC(=O)N(CCCl)N=O` (stereo not shown) [Fotemustine, 1-[N-(2-chloroethyl)-N-nitrosoureido]ethylphosphonic acid diethyl ester], for which the side effects result in [3] is “fewer side effects”.
`COc1nc(N)nc2nc[nH]c12` [O^6 -methylguanine]: the IC50 worked out at 350 µM in [4] (setting [10]) and 120 µM in data set [5] (setting [11]). The “enhancement in the cytotoxic response to alkylating agents” value (“enhancement in the cytotoxic response” for short) with tumor cells is “enhancement in the cytotoxic response to chemotherapeutic alkylating agents”. In addition, the “potency as AGT depleter” value in the data set with AGT [6] was “weak”.
With `Nc1nc(OCc2ccc(Cl)cc2)c2nc[nH]c2n1` [O^6 -(p-chlorobenzyl)guanine, O^6 -(p-chlorobenzyl) guanine], in [4] (setting [10]), the IC50 turned out to be 0.2 µM. The “enhancement in the cytotoxic response” value with tumor cells is “enhancement in the cytotoxic response to chemotherapeutic alkylating agents”. Besides, in the data set with AGT [6], the “potency as AGT depleter” value was “more potent” and the “AGT depletion (shown previously)” value was “effective in depleting AGT”. Besides, the IC50 in data set [5] (setting [11]) was 0.08 µM.
In the case of `O=c1cc[nH]c(=S)[nH]1` [Thiouracil], the “accumulation in active melanin producing cells” value in data set [7] was “accumulates readily in active melanin producing cells such as melanoma cells”.
`Nc1nc(OCc2ccccc2)c2ncn(CC(=O)[O-])c2n1.[Na+]` [sodium salt]: the IC50 in [4] (setting [10]) was 157 µM.
Regarding `Cc1ccc(COc2nc(N)nc3c2ncn3[C@@H]2O[C@H](CO)[C@@H](O)[C@H]2O)cc1` [O^6 -(p-methylbenzyl)guanosine, O^6 - (p-methylbenzyl)guanosine], the IC50 in [4] (setting [10]) was found to be 9 µM; in data set [5] (setting [11]), 3 µM. The “AGT depletion (shown previously)” value in the data set with AGT [6] was “effective in depleting AGT”.
Take `Nc1nc(OCc2ccccc2)c2ncn([C@H]3C[C@H](O)[C@@H](CO)O3)c2n1` [O^6-benzyl-2'-deoxyguanosine]: the IC50 came to 2 µM in data set [4] (setting [10]) and 0.5 µM in [5] (setting [11]). The “AGT depletion (shown previously)” value in the data set with AGT [6] is reported as “effective in depleting AGT”.
`CN(N=O)C(=O)N[C@H]1C(O)O[C@H](CO)[C@@H](O)[C@@H]1O` (stereo partly drawn) [Streptozotocin, 2-deoxy-2-(3-methyl-3-nitrosoureido)-D-glucopyranose]: in the data set on pancreatic tumors, the “effectiveness against pancreatic tumors” value was “effective”. In the data set with pancreatic beta cells, the “selective destruction of pancreatic beta cells” value is “selectively destructive to pancreatic beta cells”.
Regarding `CC(=O)n1cnc2c(OCc3ccccc3)nc(N)nc21` [Example 13, 9-Acetyl-O^6-benzylguanine], the conversion by hydrolysis result in data set [8] (in vitro and in cultures) is on record as “Converted to O^6benzylguanine by hydrolysis”. Further, in [9], the “decomposition at pH 13” value was “decomposes to O^6 -benzylguanine”.
As to `CCOC(=O)Cn1cnc2c(OCc3ccccc3)nc(N)nc21` [Example 3b, 2-Amino-6-benzyloxy-9-carboethoxymethylpurine], the IC50 amounted to 30 µM in data set [4] (setting [10]) and 3 µM in data set [5] (setting [11]). In the data set with AGT [1], the AGT depletion characteristics entry was “exhibit AGT depletion characteristics”.
Take `N#CCn1cnc2c(OCc3ccccc3)nc(N)nc21` [Example 6b, 2-Amino-6-benzyloxy-9-cyanomethylpurine]: the AGT depletion characteristics result in the data set on AGT [1] is “exhibit AGT depletion characteristics”.
As for `C=CCOc1nc(N)nc2nc[nH]c12` [O^6 -allylguanine, O^6 -Allylguanine], the figures for the IC50 in data set [4] and in data set [5] were 20 µM and 4 µM, respectively.
As to `O=NN(CCCl)C(=O)NCCCl` [BCNU, 1,3-bis(2-chloroethyl)-1-nitrosourea], the “regression in tumor growth” value in the data set on prostate tumors is given as “not observed”.
On to `CC(C)(C)C(=O)OCn1cnc2c(OCc3ccccc3)nc(N)nc21` [Example 7, 2-Amino-6-benzyloxy-9-pivaloyloxymethylpurine], for which the “conversion by esterases in cell cultures” value in [8] (cell cultures) is listed as “Converted to O^6benzylguanine by esterases in cell cultures”. In addition, the stability in vitro entry in [8] (in vitro) is reported as “stable in vitro”.
With `NC(=O)Cn1cnc2c(OCc3ccccc3)nc(N)nc21` [Example 4b, 2-Amino-6-benzyloxy-9-carbamoylmethylpurine], the AGT depletion characteristics entry in the data set on AGT [1] was “exhibit AGT depletion characteristics”.
In the case of `Nc1nc(OCc2ccc(F)cc2)c2nc[nH]c2n1` [O^6 -(p-fluorobenzyl)guanine, O^6 -(p-fluorobenzyl) guanine], the IC50 in [4] (setting [10]) is 0.2 µM. Further, the “AGT depletion (shown previously)” value in the data set on AGT [6] was “effective in depleting AGT”.
On to `Nc1nc(OCc2ccccc2)c2ncn([C@@H]3O[C@H](CO)[C@@H](O)[C@H]3O)c2n1` [O^6 -benzylguanosine], for which the values for the IC50 in data set [4] (setting [10]) and in data set [5] (setting [11]) were 11 µM and 2 µM, respectively. Moreover, the “AGT depletion (shown previously)” value in the data set on AGT [6] is recorded as “effective in depleting AGT”.
For the molecule `Cc1ccc(COc2nc(N)nc3nc[nH]c23)cc1` [O^6 -(p-methylbenzyl)guanine], the IC50 in data set [4] (setting [10]) came out at 0.2 µM; in data set [5] (setting [11]) it was 0.08 µM. In the data set on tumor cells, the “enhancement in the cytotoxic response” value is listed as “enhancement in the cytotoxic response to chemotherapeutic alkylating agents”. Also, in the data set with AGT [6], the “potency as AGT depleter” value is given as “more potent”. Further, in the data set on AGT [6], the “AGT depletion (shown previously)” value is recorded as “effective in depleting AGT”.
`Nc1nc(OCc2ccc(Cl)cc2)c2ncn([C@@H]3O[C@H](CO)[C@@H](O)[C@H]3O)c2n1` [O^6 -(p-chlorobenzyl)guanosine]: the IC50 amounted to 10 µM in [4] (setting [10]) and 5 µM in [5] (setting [11]). Also, the “AGT depletion (shown previously)” value in the data set on AGT [6] is reported as “effective in depleting AGT”.
Take `C[C@]12CCC(=O)C[C@@H]1CC[C@@H]1[C@@H]2CC[C@]2(C)[C@@H](OC(=O)Cn3cnc4c(OCc5ccccc5)nc(N)nc43)CC[C@@H]12` [Example 22, O^6 -Benzyl-9-(5α-androstan-3-one-17β-oxycarbonylmethyl) guanine]: the IC50 in data set [4] came out at 4 µM; in [5], 0.5 µM.
On to `CCC(O)Cn1cnc2c(OCc3ccccc3)nc(N)nc21` (stereo not shown) [Example 5b, 2-Amino-6-benzyloxy-9-(2-hydroxybutyl)purine], for which the AGT depletion characteristics entry with AGT [1] was “exhibit AGT depletion characteristics”.
